Patent US20080311126A1, “Antisense Oligonucleotides Directed to Ribonucleotide Reducatase R2 and Uses Thereof in Combination Therapies for the Treatment of Cancer” (Genesense Technologies, Inc, priority 2004, published 2008)
Oligonucleotides are written 5' to 3', each unit as a sugar letter and its base; * is a phosphorothioate linkage, no mark a phosphodiester; rarer units and linkages stand in square brackets, end groups in braces. Plain capitals give the bases only. d = 2'-deoxy (DNA)

Experiments:
[1] = system: PC-3 human prostatic cancer cells; assay: PC-3 prostatic tumour xenograft in SCID mice; type: in vivo
Experimental: In both experiments, PC-3 human prostatic cancer cells (1×10^7 cells in 100 μl of PBS) were subcutaneously injected into the right flank of 6-7 weeks old male SCID mice. After the size of tumour reached an approximate volume of 50 mm^3, 14 days post tumour cell injection, SEQ ID NO:1 was administered by bolus infusion into the tail vein every other day at 10 mg/kg 18 times (FIG. 14A) or 17 times (FIG. 14B), respectively. Control animals received saline alone for the same period. Antitumour effect of SEQ ID NO:1 was further compared to that of mitoxantrone (Novantrone®) alone or in combination. Mitoxantrone was administered intravenously once at the beginning of the treatments at a dose of 2 mg/kg (FIG. 14A) or once a week for four weeks at a reduced dose of 0.8 mg/kg (FIG. 14B). All treatments were stopped at day 50 (FIG. 14A) or 48 (FIG. 14B), respectively. A day after the last treatment, tumours were excised from the animals and their weights were measured.

[2] = system: DU145 human prostatic cancer cells; assay: DU145 prostatic tumour xenograft in SCID mice; type: in vivo; conditions: for Tumour weight as % of saline control: DU145 (prostatic), Mouse SCID
Experimental: In both experiments, DU145 human prostatic cancer cells (1×10^7 cells in 100 μl of PBS) were subcutaneously injected into the right flank of 6-7 weeks old male SCID mice. After the size of tumour reached an approximate volume of 50 mm^3, 13 FIG. 15A) or 11 (FIG. 15B) days post tumour cell injection, SEQ ID NO:1 was administered by bolus infusion into the tail vein every other day at 10 mg/kg 15 times (FIG. 15A) or 14 times (FIG. 15B), respectively. Control animals received saline alone for the same period. Antitumour effect of SEQ ID NO:1 was further compared to that of mitoxantrone (Novantrone®) alone or in combination. Mitoxantrone was administered intravenously once at the beginning of the treatments at a dose of 2 mg/kg (FIG. 15A) or once a week for four weeks at a reduced dose of 0.8 mg/kg (FIG. 15B). All treatments were stopped at day 42 (FIG. 15A) or 38 (FIG. 15B); respectively. A day after the last treatment, tumours were excised from the animals and their weights were measured.

[3] = system: A2058 human melanoma cells; assay: A2058 melanoma xenograft in CD-1 nude mice; type: in vivo; conditions: A2058 (melanoma); Mouse CD-1
Experimental: A2058 human melanoma cells 1×10^7 cells in 100 μl of PBS) were subcutaneously injected into the right flank of 6-7 week old female CD-1 nude mice. A2058 is a metastatic melanoma cell line. After the size of tumour reached an approximate volume of 100 mm^3, 6 days post tumour cell injection, SEQ ID NO:1 was administered by bolus infusion into the tail vein every other day at 10 mg/kg. Control animals received saline alone for the same period. Antitumour effect of SEQ ID NO:1 was further compared to that of dacarbazine (DTIC) alone or that of SEQ ID NO:1 in combination with DTIC. DTIC was administered intravenously for 5 days in a row from day 6-10 at a dose of 80 mg/kg in 100 μl saline. All treatments were stopped at day 24. A day after the last treatment, tumours were excised from the animals and their weights were measured.

[4] = system: Hela S3 cells; assay: Relative colony forming efficiency, lipofectin +/- oligonucleotide 4 hours; type: cell-based, human; conditions: Hela S3 cervix carcinoma cells; averages of 2-8 determinations
Outline: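 HeLa S3 cells were exposed to phosphorothioate antisense oligonucleotide (0.2 μM unless stated) with lipofectin for 4 h, then grown 7–10 days in 10% FBS medium. Methylene blue-stained colonies were counted and expressed as percent survival relative to lipofectin-only controls.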

[5] = system: A549 lung cell carcinoma; assay: Relative colony forming efficiency (Example 17, Table 13); type: cell-based, human; conditions: averages of 2-8 determinations
Outline: (§1)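 Antisense phosphorothioates are tested at 0.2 μM unless stated, transfected with DOTMA/DOPE (2.5 μg) for four hours. Colony counts after methylene blue staining give percent inhibition versus vehicle-lipid controls.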

[6] = system: Colo320 colon cell adenocarcinoma; assay: as above; type: cell-based, human; conditions: averages of 2-8 determinations
Outline: as §1

[7] = system: H596 lung adenosquamous carcinoma cells; assay: as above; type: cell-based, human; conditions: averages of 2-8 determinations
Outline: as §1

[8] = system: HCT116 colon cell carcinoma; assay: as above; type: cell-based, human; conditions: averages of 2-8 determinations
Outline: as §1

[9] = system: HepG2 hepatocellular carcinoma; assay: as above; type: cell-based, human; conditions: averages of 2-8 determinations
Outline: as §1

[10] = system: MDA PaCa-2 pancreatic cell carcinoma; assay: as above; type: cell-based, human; conditions: MIA PaCa-2 pancreatic cell carcinoma; averages of 2-8 determinations
Outline: as §1

[11] = system: MDA-MB-231 breast cell adenocarcinoma; assay: as above; type: cell-based, human; conditions: averages of 2-8 determinations
Outline: as §1

[12] = system: PC-3 prostrate cell adenocarcinoma; assay: as above; type: cell-based, human; conditions: averages of 2-8 determinations
Outline: as §1

[13] = system: T-47D breast ductal carcinoma; assay: as above; type: cell-based, human; conditions: averages of 2-8 determinations
Outline: as §1

[14] = system: T24 bladder cell carcinoma; assay: as above; type: cell-based, human; conditions: averages of 2-8 determinations
Outline: as §1

[15] = system: HT-29 human colon cancer cells; assay: HT-29 colon tumour xenograft in CD-1 nude mice; type: in vivo; conditions: HT-29 (colon); Mouse CD-1; CPT-11 study
Experimental: HT-29 human colon cancer cells (3×10^6 cells in 100 μl of PBS) were subcutaneously injected into the right flank of 6-7 weeks old female CD-1 nude mice. After the size of tumour reached an approximate volume of 50 mm^3, 4 days post tumour cell injection, mitomycin C was administered by bolus infusion into the tail vein at days 4, 11 and 18 with a dose of 3.5 mg/kg/week. Antitumour effect of mitomycin C was further compared to that of SEQ ID NO:1 in combination with mitomycin C. SEQ ID NO:1 was administered by bolus infusion into the tail vein every day at 6 mg/kg and mitomycin C was administered intravenously at days 4, 11 and 18 with a dose of 3.5 mg/kg/week, one hour after the treatments with SEQ ID NO:1. Control animals received saline alone for the same period as SEQ ID NO:1. All treatments were stopped at day 22. A day after the last treatment, tumours were excised from the animals and their weights were measured.
HT-29 human colon cancer cells (3×10^6 cells in 100 μl of PBS) were subcutaneously injected into the right flank of 5-6 week old female CD-1 nude mice. After the size of tumour reached an approximate volume of 100 mm^3, 7 days post tumour cell injection, SEQ ID NO:1 was administered by bolus infusion into the tail vein every other day at 10 mg/kg. Control animals received saline alone for the same period. Antitumour effect of SEQ ID NO:1 was further compared to that of CPT-11 alone or that of SEQ ID NO:1 in combination with CPT-11. CPT-11 was administered intraperitoneally for 5 days in a row from […] with a dose of 20 mg/kg in 100 μl saline. All treatments were stopped at day 32. A day after the last treatment, tumours were excised from the animals and their weights were measured.
HT-29 human colon cancer cells (3×10^6 cells in 100 μl of PBS) were subcutaneously injected into the right flank of 6-7 week old female CD-1 nude mice. Treatments started at day 5 post tumour cell injection, SEQ ID NO:1 and 5-FU were administered as outlined below: • Groups and treatment: • Group 1. Saline treated group: saline:0.1 ml/2 days, i.v.; • Group 2. SEQ ID NO:1 treated group: 10 mg/kg/2 days in 100 μL saline, i.v.; • Group 3. 5-FU treated group:13 mg/kg/5 days/week (one week on and one week off), i.v.; • Group 4. SEQ ID NO:1 plus 5-FU treated group.
HT-29 human colon cancer cells (3×10^6 cells in 100 μl of PBS) were subcutaneously injected into the right flank of 5-6 week old female CD-1 nude mice. Treatments started 4 days post tumour cell injection, SEQ ID NO: 1 and Capecitabine were administered as outlined below: • Group and Treatment: • Group 1: treated with 0.2 ml vehicle solution for capecitabine, o.p.; • Group 2: treated with 0.1 ml saline, i.v.; • Group 3: treated with 359 mg/kg/day×5/w Capecitabine in 0.2 ml vehicle solution, o.p.; • Group 4: treated with 10 mg/kg/2 days SEQ ID NO:1 in 0.1 ml saline i.v.; • Group 5: treated with 10 mg/kg/2 days SEQ ID NO:1 in 0.1 ml saline, i.v. plus 359 mg/kg/day×5/w capecitabine in 0.2 ml vehicle solution, o.p.

[16] = system: LS513 multi-drug resistant colon carcinoma cells; assay: LS513 multi-drug resistant colon carcinoma xenograft in SCID mice; type: in vivo, human; conditions: LS513 (colon) multi-drug resistant (CPT-11 sensitive); SCID
Experimental: LSS13 multi-drug resistant colon carcinoma cells (1×10^7 cells in 100 μl of PBS) were subcutaneously injected into the right flank of 6-7 weeks old female SCID mice. After the size of tumour reached an approximate volume of […], 8 days post tumour cell injection, SEQ ID NO:1 was administered by bolus infusion into the tail vein every other day at 10 mg/kg. Control animals received saline alone for the same period. Antitumour effect of SEQ ID NO:1 was further compared to that of CPT-11 alone or in combination. CPT-11 was administered i.p. for 5 days at a dose of 20 mg/kg/day. Antitumour activities were estimated by the inhibition of tumour volume, which was measured with caliper. Each point represents mean tumour volume calculated from 10 animals per experimental group. Tumour weights were measured after animals were sacrificed at the end of the treatment. These cells are not resistant to CPT-11 which was used as a positive control.

O=C1c2c(O)ccc(O)c2C(=O)c2c(NCCNCCO)ccc(NCCNCCO)c21 [Novantrone, mitoxantrone]
antitumour effect (tumour weight) ([1]; FIG. 14B, SEQ ID NO:1 10 mg/kg 17 times, mitoxantrone 0.8 mg/kg once a week for four weeks): significant delay of tumour growth
Tumour weight as % of saline control ([1]; PC-3 (prostatic), Mouse SCID): 57%
Tumour weight as % of saline control ([2]; first of two value columns (two independent experiments)): 40%
Tumour weight as % of saline control ([2]; second of two value columns (two independent experiments)): 60%
antitumour effect (tumour weight) ([2]; FIG. 15B, SEQ ID NO:1 10 mg/kg 14 times, mitoxantrone 0.8 mg/kg once a week for four weeks): significant delay of tumour growth

CN(C)/N=N/c1[nH]cnc1C(N)=O [DTIC, dacarbazine, reference compound]
Tumour weight as % of saline control [3]: 68%

GAGCAGCCAGGACAGGACGG (antisense dG*dA*dG*dC*dA*dG*dC*dC*dA*dG*dG*dA*dC*dA*dG*dG*dA*dC*dG*dG) [AS-II-151-20]
Reduced relative colony forming efficiency, Hela S3 (% inhibition of colony forming ability) [4]: 66.75%
Reduced relative colony forming efficiency, A549 (% inhibition of colony forming ability) [5]: 84.28%
Reduced relative colony forming efficiency, Co1o320 (% inhibition of colony forming ability) [6]: 90.12%
Reduced relative colony forming efficiency, 11596 (% inhibition of colony forming ability) [7]: 69.12%
Reduced relative colony forming efficiency, HCT116 (% inhibition of colony forming ability) [8]: 78.09%
Reduced relative colony forming efficiency, HepG2 (% inhibition of colony forming ability) [9]: 89.53%
Reduced relative colony forming efficiency, MIA PaCa-2 (% inhibition of colony forming ability) [10]: 75.38%
Reduced relative colony forming efficiency, MDA-MB-231 (% inhibition of colony forming ability) [11]: 41.64%
Reduced relative colony forming efficiency, PC-3 (% inhibition of colony forming ability) [12]: 35.68%
Reduced relative colony forming efficiency, T-47D (% inhibition of colony forming ability) [13]: 95.39%

CCTTGCCCTGAGAGATTCCT (antisense dC*dC*dT*dT*dG*dC*dC*dC*dT*dG*dA*dG*dA*dG*dA*dT*dT*dC*dC*dT) [AS-II-2083-20]
Reduced relative colony forming efficiency, Hela S3 (% inhibition of colony forming ability) [4]: 84.58%
Reduced relative colony forming efficiency, A549 (% inhibition of colony forming ability) [5]: 90.65%
Reduced relative colony forming efficiency, A549 (% inhibition of colony forming ability) ([5]; listed as AS-II-2083-20 *): 31.73%
Reduced relative colony forming efficiency, Co1o320 (% inhibition of colony forming ability) [6]: 87.28%
Reduced relative colony forming efficiency, Co1o320 (% inhibition of colony forming ability) ([6]; listed as AS-II-2083-20 *): 52.54%
Reduced relative colony forming efficiency, 11596 (% inhibition of colony forming ability) [7]: 82.98%
Reduced relative colony forming efficiency, 11596 (% inhibition of colony forming ability) ([7]; listed as AS-II-2083-20 *): 49.37%
Reduced relative colony forming efficiency, HCT116 (% inhibition of colony forming ability) [8]: 87.46%
Reduced relative colony forming efficiency, HCT116 (% inhibition of colony forming ability) ([8]; listed as AS-II-2083-20 *): 41.16%
Reduced relative colony forming efficiency, HepG2 (% inhibition of colony forming ability) [9]: 93.64%
Reduced relative colony forming efficiency, HepG2 (% inhibition of colony forming ability) ([9]; listed as AS-II-2083-20 *): 46.14%
Reduced relative colony forming efficiency, MIA PaCa-2 (% inhibition of colony forming ability) [10]: 71%
Reduced relative colony forming efficiency, MDA-MB-231 (% inhibition of colony forming ability) [11]: 68.88%
Reduced relative colony forming efficiency, PC-3 (% inhibition of colony forming ability) [12]: 32.03%
Reduced relative colony forming efficiency, T-47D (% inhibition of colony forming ability) [13]: 89.32%
Reduced relative colony forming efficiency, T-47D (% inhibition of colony forming ability) ([13]; listed as AS-II-2083-20 *): 43.61%
Reduced relative colony forming efficiency, T24 (% inhibition of colony forming ability) [14]: 82.43%
Reduced relative colony forming efficiency, T24 (% inhibition of colony forming ability) ([14]; listed as AS-II-2083-20 *): 9.52%

CCc1c2c(nc3ccc(OC(=O)N4CCC(N5CCCCC5)CC4)cc13)-c1cc3c(c(=O)n1C2)COC(=O)[C@]3(O)CC [CPT-11, Irinotecan, reference compound]
Tumour weight as % of saline control [15]: 36%
Tumour weight as % of saline control [16]: 47%
